Seven compounds from patent publication US20060019241A1, “Na+ and CI-coupled transport system for endogenous opioid peptides” (priority 2004, published 2006) can be followed below.

“Also recorded” adds a separate entry of the source.

For test [1], the system named is deltorphin II transport system in Tat-ARPE-19 cells. Put plainly: Inhibition of [^3H]deltorphin II uptake in Tat-ARPE-19 cells. The following applies: for [^3H] Deltorphin II uptake / [^3H] Deltorphin II uptake (%) of control: Tat-ARPE-19 cells, 30 minutes, NaCl, inhibitor 1 mM; for [^3H] Deltorphin II uptake (%) of control: control = 100. The class given is cell-based, human. The source says: (§1) Stable transfection of ARPE-19 cells with pcDNA-Tat cDNA. The pGEM2-Tat cDNA construct contained as the insert a 295 basepair (bp) fragment encoding the first exon of HIV-1 Tat gene joined to a 145 bp pET3A transcription terminator. The entire insert (440 bp) was removed from the construct by digestion with PstI and EcoRI and ligated into the multiple cloning region of pcDNA3.1 (−) vector at PstI/EcoRI site so that the insert is downstream of the cytomegalovirus (CMV) promoter. The resultant construct was sequenced to confirm the orientation of the insert. This construct was electroporated into ARPE-19 cells and the stably transfected cell clones were isolated in the presence of Geneticin (G418). To serve as a control, empty pcDNA3.1 vector was electroporated into ARPE-19 cells in an identical manner and the clones harboring the vector were selected by G418 resistance.
(§2) Uptake measurements in control ARPE-19 cells and Tat-ARPE-19 cells. Control ARPE-19 cells and Tat-ARPE-19 cells were maintained in 75-cm^2 culture flasks in Dulbecco's modified Eagle's medium/F12 medium (1:1, volume/volume (v/v)) in the presence of fetal bovine serum (10%) and G418 (100 μg/ml). For uptake measurements, cells were released by trypsin treatment and seeded in 24-well culture plates at an initial density of 0.1×10^6 cells/well. The culture medium was replaced with fresh medium on the second day following the initial seeding and uptake measurements were made on the third day. […] After incubation at 37° C. for a desired time, uptake was terminated by the removal of the medium and washing of the cells with ice-cold uptake buffer. The cells were then dissolved in 1% SDS in 0.2 M NaOH and used for measurement of radioactivity. The uptake buffer in most experiments was 25 mM Hepes/Tris (pH 7.5), containing 140 mM NaCl, 5.4 mM KCl, 1.8 mM CaCl2, 0.8 mM MgSO4 and 5 mM glucose.
When the influence of Na^+ on the uptake process was investigated, the concentration of NaCl in the uptake buffer was adjusted, as desired, by isoosmotically replacing NaCl with N-methyl-D-glucamine chloride. To assess the influence of Cl^− on the uptake process, the composition of the uptake medium was modified by replacing KCl and CaCl2 with equimolar concentrations of potassium gluconate and calcium gluconate and the concentration of NaCl was adjusted, as desired, by iso-osmotically replacing NaCl with sodium gluconate. Saturation kinetics were analysed by fitting the data to the Michaelis-Menten equation. The Michaelis-Menten constant, Kt, was calculated by non-linear regression analysis and then confirmed by linear regression. Na^+- and Cl^−-activation kinetics were analyzed by fitting the data to the Hill equation and the Hill coefficients for Na^+ and Cl^− (h; the number of Na^+ and Cl^− ions involved in the activation process) and the K0.5 values (the concentration of Na^+ and Cl^−-needed for half-maximal activation) were determined from the analysis. Again, these constants were first calculated by non-linear regression methods and subsequently confirmed by linear regression methods. Experiments were repeated three times in duplicate and the results are given as means±S.E.M.
(§3) Substrate specificity of the deltorphin transport system. […] These peptides consisted of 4-13 amino acids.
Relative affinities of endogenous opioid peptides for the transport system.

Test [2] has as its system deltorphin II transport system in control ARPE-19 cells. Nature of the test: Inhibition of [^3H]deltorphin II uptake in control ARPE-19 cells. As to conditions: [^3H]deltorphin II 50 nM, 30 minutes, NaCl, peptide/antagonist 1 mM; for [^3H] Deltorphin II uptake: control ARPE-19 cells (pcDNA vector alone); for [^3H] Deltorphin II uptake (%) of control: control ARPE-19 cells, control = 100. The class given is cell-based, human.
Excerpt: as §1, §2, §3

For test [3], the system named is enkephalin/endorphin transport system in SK—N—SH cells. Nature of the test: [^3H]deltorphin II uptake in SK—N—SH cells, effect of peptides and amino acids. It is filed as cell-based, human. As to conditions: for IC50: read-out: affinity for the transport system (concentration-dependent inhibition of [^3H]deltorphin II uptake), [^3H]deltorphin II 25 nM; for influence on kinetics of deltorphin II uptake / type of inhibition: 250 μM L-Lysine; for effect on [^3H]deltorphin II uptake (in words): test substance 1 mM. As for the experimental part:
as §2
Since enkephalins and endorphins are relevant to pain perception and to further provide evidence in support of a role for the transport system in opioidergic neurotransmission, the human neuronal cell line SK—N—SH was tested for expression of the transport system. […] Unless otherwise specified, procedures are as detailed in Example 1.
The concentration of enkephalins and dynorphins was 1 mM.
Finally, the relative affinity of various enkephalins and dynorphins for the transport system in SK—N—SH cells was determined.
To the further characterize the opioid transport of the present invention, various specific peptides that act as positive modulators of the enkephalin/endorphin transport system in the human neuronal cell line SK—N—SH were identified. Unless otherwise specified, procedures are as detailed in Example 1. […] Uptake was measured in the presence of NaCl for 30 minutes. The concentration of the dipeptides was 1 mM.
Uptake was measured in the presence of NaCl for 30 minutes. The concentration of the tripeptides was 1 mM.
Unless otherwise specified, procedures are as described in more detail in Example 1.
The dose-response relationship for the inhibition of the enkephalin/endorphin transport system by L-Lysine and its methyl and ethyl esters is shown in FIG. 15.

Test [4] concerns deltorphin II uptake inducible by rMC-1 mRNA in X. laevis oocytes. Put plainly: Deltorphin II uptake in X. laevis oocytes injected with rMC-1 mRNA. It is filed as cell-based, rat. The following applies: X. laevis oocytes injected with rMC-1 poly(A)+ mRNA, deltorphin II 125 nM. The procedure:
Therefore, functional expression of the deltorphin II transport system in X. laevis oocytes will be used to clone this transport system. […] Poly(A)+ mRNA was prepared from this cell line for functional expression studies in X. laevis oocytes.

In a further test the test system is SK—N—SH cells. Put plainly: L-lysine uptake in SK—N—SH cells. It is filed as cell-based, human. The procedure:
Whether or not L-lysine is a transportable substrate for the opioid peptide transport system was tested. For this, uptake of L-lysine was studied and the influence of Na^+ and opioid peptides assessed in SK—N—SH cells.

For test [5], the system named is opioid peptide transport system in rMC-1 cells. Put plainly: Opioid peptide transport in rMC-1 cells. It is filed as cell-based, rat.

As to “Tyr-Gly-Gly-Phe-Leu-Arg-Arg-IIe-Arg-Pro-Lys-Leu-Lys (YGGFLRRIRPKLK) [Dynorphin A (1-13)]”, in test [1] (RPE cells), the “fold higher affinity than the shorter dynorphins (six to nine amino acids)” value is recorded as about 10 fold. Moreover, in test [1] ([^3H]deltorphin II 50 nM), the “[^3H] Deltorphin II uptake” value is reported as 0.07 ± 0.01 pmol/mg protein/30 min and the “[^3H] Deltorphin II uptake (%) of control” value came to 1%. In addition, in test [2], the “[^3H] Deltorphin II uptake” value worked out at 0.04 ± 0.001 pmol/mg protein/30 min and the “[^3H] Deltorphin II uptake (%) of control” value was determined as 4%. Further, the IC50 in test [3] is 0.15 ± 0.01 µM.
Turning to YGGFLRRQF [Dynorphin B (1-9)], the figures for the “[^3H] Deltorphin II uptake” value in test [1] ([^3H]deltorphin II 50 nM) and in test [2] were 0.08 ± 0.01 pmol/mg protein/30 min and 0.06 ± 0.000 pmol/mg protein/30 min, respectively. Besides, the results for the “[^3H] Deltorphin II uptake (%) of control” value in test [1] ([^3H]deltorphin II 50 nM) and in test [2] were 1% and 5%, respectively. Besides, the “inhibition of mRNA-induced deltorphin II uptake (in words)” value in test [4] (listed as dynorphin B 1-9) is recorded as “completely inhibitable”; in test [4] (listed as dynorphin B1-9), “completely inhibited”.
For Tyr-Gly-Gly-Phe-Met [Met-enkephalin], the “competition with deltorphin for the uptake process (in words)” value in test [1] (Tat-ARPE-19 / RPE cells, [^3H]deltorphin II 50 nM, compound 1 mM) is given as “marked inhibition”. In test [1] ([^3H]deltorphin II 50 nM), the “[^3H] Deltorphin II uptake” value was 0.50 ± 0.01 pmol/mg protein/30 min and the “[^3H] Deltorphin II uptake (%) of control” value turned out to be 6%. Further, in test [2], the “[^3H] Deltorphin II uptake” value is reported as 0.06 ± 0.004 pmol/mg protein/30 min and the “[^3H] Deltorphin II uptake (%) of control” value is on record as 5%. Also, the IC50 in test [3] was found to be 10.7 ± 3.1 µM.
Consider `NCCCC[C@H](N)C(=O)O` [L-Lys, L-lysine], for which the “interaction with the opioid peptide transport system (in words, summary of Examples)” value in test [3] is “inhibited; also recorded: not a transportable substrate but a blocker”. Further, the figures for the “influence on kinetics of deltorphin II uptake / type of inhibition” value in test [3] (listed as L-Lysine) and in test [3] (listed as L-lysine) were “decreased the maximal velocity of the transport system without affecting the affinity for deltorphin II; also recorded: decreasing the maximal velocity without affecting the substrate affinity” and “non-competitive”, respectively. The “Deltorphin II uptake” value in test [3] ([^3H]deltorphin II 25 nM, NaCl, 30 minutes, compound 1 mM) came to 0.26 ± 0.01 pmol/30 min/mg protein. The “effect on [^3H]deltorphin II uptake (in words)” value in test [3] ([^3H]deltorphin II 25 nM, NaCl, 30 minutes, listed as L-Lysine) is listed as “significant inhibition; also recorded: most potent inhibitors”; in test [3] ([^3H]deltorphin II 25 nM, NaCl, 30 minutes, listed as L-lysine), “greatest inhibition; also recorded: inhibit the uptake to a marked extent”. Moreover, in test [3] (read-out: Ki for inhibition of deltorphin II uptake, dose-response studies), the Ki turned out to be 160 ± 19 µM. Besides, the “L-lysine uptake: influence of Na^+ and opioid peptides; transportable substrate or not” value with SK—N—SH cells was “not Na^+-dependent and is insensitive to opioid peptides; also recorded: not a transportable substrate”. Also, in test [5], the “interaction with the opioid peptide transport system (in words)” value is recorded as “inhibited; also recorded: not a transportable substrate but a blocker”.
Consider `C[C@]12CC[C@@H]3c4ccc(OS(=O)(=O)O)cc4CC[C@H]3[C@@H]1CCC2=O` [estrone-3-sulfate], for which the “inhibition of mRNA-induced deltorphin II uptake (in words)” value in test [4] is “only a slight inhibition; also recorded: only slightly inhibited”.
With “YGGFLRR [Dynorphin A (1-7), Tyr-Gly-Gly-Phe-Leu-Arg-Arg]”, in test [1] ([^3H]deltorphin II 50 nM), the “[^3H] Deltorphin II uptake” value worked out at 0.10 ± 0.02 pmol/mg protein/30 min and the “[^3H] Deltorphin II uptake (%) of control” value came to 1%. Besides, in test [2], the “[^3H] Deltorphin II uptake” value stood at 0.05 ± 0.002 pmol/mg protein/30 min and the “[^3H] Deltorphin II uptake (%) of control” value was determined as 5%. For the same compound, the IC50 in test [3] stood at 4.6 ± 1.1 µM.
For the compound “YGGFLR [Dynorphin A (1-6), Tyr-Gly-Gly-Phe-Leu-Arg]”, in test [1] ([^3H]deltorphin II 50 nM), the “[^3H] Deltorphin II uptake” value was determined as 0.12 ± 0.00 pmol/mg protein/30 min and the “[^3H] Deltorphin II uptake (%) of control” value was 2%. In test [2], the “[^3H] Deltorphin II uptake” value came to 0.06 ± 0.001 pmol/mg protein/30 min and the “[^3H] Deltorphin II uptake (%) of control” value is reported as 5%. Also, the IC50 in test [3] came to 3.5 ± 0.4 µM.
